Results published in ChEMBL document CHEMBL1201862, “PubChem BioAssay data set” (2004).
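Values below derive from 48-hour exposures of cells grown in 96-well plates, with endpoints linearly interpolated between the two concentrations bracketing the appropriate inhibition level. GI50 = concentration required for 50% inhibition of growth.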 Active and inactive are the calls of the source. Rule as the data show it: active = GI50 up to about 1.1 µM and inactive = higher.

How the values were obtained:
Test in all cases: growth of human tumour cells (NCI), 48 h
HT-29 = tested on: HT-29
HCC 2998 = tested on: HCC 2998
NCI-H522 = tested on: NCI-H522
RPMI-8226 = tested on: RPMI-8226
Hs-578T = tested on: Hs-578T
SF-539 = tested on: SF-539
CCRF-CEM = tested on: CCRF-CEM
SF-268 = tested on: SF-268
A498 = tested on: A498
MDA-MB-231 = tested on: MDA-MB-231
U-251 = tested on: U-251
OVCAR-8 = tested on: OVCAR-8
RXF 393 = tested on: RXF 393
HCT-116 = tested on: HCT-116
SF-295 = tested on: SF-295
NCI-H226 = tested on: NCI-H226
ACHN = tested on: ACHN
HOP-62 = tested on: HOP-62
Malme-3M = tested on: Malme-3M
HCT-15 = tested on: HCT-15
LOX IMVI = tested on: LOX IMVI
M14 = tested on: M14
MOLT-4 = tested on: MOLT-4
T47D = tested on: T47D
IGROV-1 = tested on: IGROV-1
786-0 = tested on: 786-0
A549 = tested on: A549
PC-3 = tested on: PC-3
SK-MEL-5 = tested on: SK-MEL-5
SK-MEL-28 = tested on: SK-MEL-28
OVCAR-4 = tested on: OVCAR-4
TK-10 = tested on: TK-10
SN12C = tested on: SN12C
NCI-H460 = tested on: NCI-H460
EKVX = tested on: EKVX
UACC-62 = tested on: UACC-62
SNB-19 = tested on: SNB-19
SK-OV-3 = tested on: SK-OV-3
SNB-75 = tested on: SNB-75
NCI/ADR-RES = tested on: NCI/ADR-RES
OVCAR-3 = tested on: OVCAR-3
KM12 = tested on: KM12
MDA-MB-435 = tested on: MDA-MB-435
UACC-257 = tested on: UACC-257
SK-MEL-2 = tested on: SK-MEL-2
SW-620 = tested on: SW-620
UO-31 = tested on: UO-31
HOP-92 = tested on: HOP-92
COLO 205 = tested on: COLO 205
BT-549 = tested on: BT-549
HL-60 = tested on: HL-60
MCF7 = tested on: MCF7
DU-145 = tested on: DU-145
CAKI-1 = tested on: CAKI-1
NCI-H23 = tested on: NCI-H23
K562 = tested on: K562
MDA-N = tested on: MDA-N
OVCAR-5 = tested on: OVCAR-5
SR = tested on: SR

## CC1=C(C)SC(=C2Sc3c(n(C)c(=O)[nH]c3=O)S2)S1
HT-29
  GI50: > 100 µM (inactive)
HCC 2998
  GI50: > 100 µM (inactive)
NCI-H522
  GI50: > 100 µM (inactive)
RPMI-8226
  GI50: > 100 µM (inactive)
Hs-578T
  GI50: > 100 µM (inactive)
SF-539
  GI50: > 100 µM (inactive)
CCRF-CEM
  GI50: > 100 µM (inactive)
SF-268
  GI50: > 100 µM (inactive)
A498
  GI50: > 100 µM (inactive)
MDA-MB-231
  GI50: > 100 µM (inactive)
U-251
  GI50: > 100 µM (inactive)
OVCAR-8
  GI50: > 100 µM (inactive)
RXF 393
  GI50: > 100 µM (inactive)
HCT-116
  GI50: > 100 µM (inactive)
SF-295
  GI50: > 100 µM (inactive)
NCI-H226
  GI50: > 100 µM (inactive)
ACHN
  GI50: > 100 µM (inactive)
HOP-62
  GI50: > 100 µM (inactive)
Malme-3M
  GI50: > 100 µM (inactive)
HCT-15
  GI50: > 100 µM
LOX IMVI
  GI50: > 100 µM (inactive)
M14
  GI50: > 100 µM (inactive)
MOLT-4
  GI50: > 100 µM (inactive)
T47D
  GI50: > 100 µM (inactive)
IGROV-1
  GI50: > 100 µM (inactive)
786-0
  GI50: > 100 µM (inactive)
A549
  GI50: > 100 µM (inactive)
PC-3
  GI50: > 100 µM (inactive)
SK-MEL-5
  GI50: > 100 µM (inactive)
SK-MEL-28
  GI50: > 100 µM (inactive)
OVCAR-4
  GI50: > 100 µM (inactive)
TK-10
  GI50: > 100 µM (inactive)
SN12C
  GI50: > 100 µM (inactive)
NCI-H460
  GI50: > 100 µM (inactive)
EKVX
  GI50: > 100 µM (inactive)
UACC-62
  GI50: > 100 µM (inactive)
SNB-19
  GI50: > 100 µM (inactive)
SK-OV-3
  GI50: > 100 µM (inactive)
SNB-75
  GI50: > 100 µM (inactive)
NCI/ADR-RES
  GI50: > 100 µM (inactive)
OVCAR-3
  GI50: > 100 µM (inactive)
KM12
  GI50: > 100 µM (inactive)
MDA-MB-435
  GI50: > 100 µM (inactive)
UACC-257
  GI50: > 100 µM (inactive)
SK-MEL-2
  GI50: > 100 µM (inactive)
SW-620
  GI50: > 100 µM (inactive)
UO-31
  GI50: > 100 µM (inactive)
HOP-92
  GI50: > 100 µM (inactive)
COLO 205
  GI50: > 100 µM (inactive)
BT-549
  GI50: > 100 µM (inactive)
HL-60
  GI50: > 100 µM (inactive)
MCF7
  GI50: > 100 µM (inactive)
DU-145
  GI50: > 100 µM (inactive)
CAKI-1
  GI50: > 100 µM (inactive)
NCI-H23
  GI50: > 100 µM (inactive)
K562
  GI50: > 100 µM (inactive)
MDA-N
  GI50: > 100 µM (inactive)
OVCAR-5
  GI50: > 100 µM (inactive)

## Nn1c(Cc2ccc([N+](=O)[O-])cc2)n[nH]c1=O
HT-29
  GI50: > 100 µM (inactive)
HCC 2998
  GI50: > 100 µM (inactive)
NCI-H522
  GI50: > 100 µM (inactive)
RPMI-8226
  GI50: > 100 µM (inactive)
Hs-578T
  GI50: > 100 µM (inactive)
SF-539
  GI50: > 100 µM (inactive)
CCRF-CEM
  GI50: > 100 µM (inactive)
SF-268
  GI50: > 100 µM (inactive)
MDA-MB-231
  GI50: > 100 µM (inactive)
U-251
  GI50: > 100 µM (inactive)
OVCAR-8
  GI50: > 100 µM (inactive)
HCT-116
  GI50: > 100 µM (inactive)
SF-295
  GI50: > 100 µM (inactive)
NCI-H226
  GI50: > 100 µM (inactive)
ACHN
  GI50: > 100 µM (inactive)
HOP-62
  GI50: > 100 µM (inactive)
Malme-3M
  GI50: > 100 µM (inactive)
HCT-15
  GI50: > 100 µM
LOX IMVI
  GI50: > 100 µM (inactive)
M14
  GI50: > 100 µM (inactive)
MOLT-4
  GI50: > 100 µM (inactive)
T47D
  GI50: > 100 µM (inactive)
IGROV-1
  GI50: > 100 µM (inactive)
786-0
  GI50: > 100 µM (inactive)
A549
  GI50: > 100 µM (inactive)
PC-3
  GI50: > 100 µM (inactive)
SK-MEL-5
  GI50: > 100 µM (inactive)
SK-MEL-28
  GI50: > 100 µM (inactive)
OVCAR-4
  GI50: > 100 µM (inactive)
SN12C
  GI50: > 100 µM (inactive)
NCI-H460
  GI50: > 100 µM (inactive)
EKVX
  GI50: > 100 µM (inactive)
UACC-62
  GI50: > 100 µM (inactive)
SR
  GI50: > 100 µM (inactive)
SNB-19
  GI50: > 100 µM (inactive)
SK-OV-3
  GI50: > 100 µM (inactive)
SNB-75
  GI50: > 100 µM (inactive)
NCI/ADR-RES
  GI50: > 100 µM (inactive)
OVCAR-3
  GI50: > 100 µM (inactive)
KM12
  GI50: > 100 µM (inactive)
MDA-MB-435
  GI50: > 100 µM (inactive)
UACC-257
  GI50: > 100 µM (inactive)
SK-MEL-2
  GI50: > 100 µM (inactive)
SW-620
  GI50: > 100 µM (inactive)
UO-31
  GI50: > 100 µM (inactive)
HOP-92
  GI50: > 100 µM (inactive)
COLO 205
  GI50: > 100 µM (inactive)
BT-549
  GI50: > 100 µM (inactive)
HL-60
  GI50: > 100 µM (inactive)
MCF7
  GI50: > 100 µM (inactive)
DU-145
  GI50: > 100 µM (inactive)
CAKI-1
  GI50: > 100 µM (inactive)
NCI-H23
  GI50: > 100 µM (inactive)
K562
  GI50: > 100 µM (inactive)
MDA-N
  GI50: > 100 µM (inactive)
OVCAR-5
  GI50: > 100 µM (inactive)
